This is an account of results in US8658683B2, “Combination of alpha-2 receptor agonist (clonidin) and anti-muscarinic agent (oxybutynin) for the treatment of sialorrhoea” (Orient Pharma (Samoa) Co., Ltd, priority 2006, dated 2014).

Data set [1] concerns patients with Parkinson's disease. As to conditions: ophthalmic solution given sublingually, cited from earlier work.
The subject of another data set is healthy male volunteers. The experiment in a line: Saxon test of saliva production, open-label rising dose study. The data set is classed as in vivo, human. As to conditions: for saliva production over time: drug administered alone, pre-dose to 6 h post-dose; for effect of dose on saliva production: drug alone, rising dose levels. The protocol: The study examined the effects of clonidine and oxybutynin on saliva production in 9 healthy male volunteers. This was an open-label, non-randomised, two-period, rising dose study.
The subjects were assessed on each dosing occasion for saliva production pre-dose and 1 h, 2.5 h, 4 h and 6 h post-dose. Vital signs were recorded at specified times during each study period and adverse events were reported throughout.
Using this information, a mixed effects regression analysis of the % reduction in saliva versus dose with subject as a random effect was performed for both clonidine and oxybutynin. From this model, an approximate ED30 and an ED50 were calculated.
The key observation in this study is based on the Saxon test. See Kohler & Winter, Arthritis Rheum.

Data set [2] concerns sialorrhoea induced by clozapine. As to conditions: in vivo; cited from earlier work.
The subject of the next data set is Parkinson's patients. The note with it: 0.15 mg per os, 17 Parkinson's patients; cited from earlier work.
For another data set, the system named is patients. The note with it: tablets; cited from earlier work.
Data set [3] deals with patients receiving clozapine with excessive drooling. The note with it: nasal spray 0.03-0.06% sublingually, 8 patients, after several weeks of use; cited from earlier work.

In the case of `CN1[C@@H]2CC[C@H]1C[C@@H](OC(=O)C(CO)c1ccccc1)C2` (stereo partly shown) [atropine], the “patients who suffered hallucinations” value in data set [1] (7 patients) was 2 of the 7. Moreover, the saliva production result in data set [1] (small case study) was “significant decline in saliva production”.

As for `Clc1cccc(Cl)c1N=C1NCCN1` [clonidine], the “AUCT of saliva production compared to placebo” value (shortened to “AUCT … compared to placebo”) with healthy male volunteers (50 mcg clonidine) was “reduction in AUCTs”. In the data set on healthy male volunteers (100 mcg clonidine), the “AUCT … compared to placebo” value is recorded as “reduction in AUCTs”. Moreover, in the data set on healthy male volunteers, the “saliva production over time” value is reported as “trend towards a reduction in saliva production over time” and the “effect of dose on saliva production” value was “significant with increasing dose levels”. Moreover, in data set [2], the “reduction of sialorrhoea induced by clozapine” value was “effective in reducing sialorrhoea”. In the data set on Parkinson's patients, the “patients who experienced side-effects” value is reported as “Four of the 17” and the reduction of sialorrhoea result is given as “significantly reduce sialorrhoea”.

`C[N+]1(C)CCC(OC(=O)C(O)(c2ccccc2)C2CCCC2)C1` (stereo not shown) [glycopyrrolate]: the “patients by whom the drug is not well tolerated” value with patients is 20-25 % of patients.

Turning to `CC(C)[N+]1(C)[C@@H]2CC[C@H]1C[C@@H](OC(=O)C(CO)c1ccccc1)C2` (stereo partly shown) [ipratropium], in data set [3], the non-responder patients is 1 patient, the “patients with full response” value was 2 patients and the “patients with partial response (symptoms controlled for 2-8 hours)” value is reported as 5 patients.

For the compound `CCN(CC)CC#CCOC(=O)C(O)(c1ccccc1)C1CCCCC1` (stereo not shown) [oxybutynin], the “AUCT … compared to placebo” value with healthy male volunteers (10 mg oxybutynin) is given as “AUCT was reduced”. Moreover, in the data set on healthy male volunteers, the “saliva production over time” value is “trend towards a reduction in saliva production over time” and the “effect of dose on saliva production” value is reported as “no significant effects of dose on saliva production”.
